Data taken from patent US20150203837A1, “FUSION PROTEIN FOR ACTIVATING RTK SIGNAL TRANSMISSION BY MEANS OF LIGHT, AND USE THEREOF” (KOREA ADVANCED INSTITUTE OF SCIENCE AND TECHNOLOGY, priority 2012, published 2015).

Target: T1, TrkB (Rattus norvegicus, UniProt Q63604)
T1 construct: PHR domain (1-498 a.a.) of Arabidopsis CRY2 (NM_100320); expressed in transfected cells; host or cells: HeLa; the other entry of the earlier key: CRY2 (Q96524, Cryptochrome-2)
Assay: Light-induced calcium signaling after treatment with TrkB-specific inhibitor (R-GECO imaging)
Assay type: cell-based
Settings: 100 nM K252a; HeLa cells co-transfected with TrkB-PHR-YFP and R-GECO; 488 nm light
Description: The present inventors observed whether sub-RTK signaling was activated by light irradiation after treating a RTK-specific inhibitor in order to confirm that only RTK-specific signaling pathways are activated by light irradiation affecting downstream pathways thereof.
The present inventors used TrkB-PHR-YFP construct prepared in the example 1-1 as an example to investigate the activation of TRK signal transduction. In addition, the present inventors used R-GECO construct (Addgene, plasmid 32444; CMV-R-GECO1) to investigate whether calcium signaling among downstream signaling pathways of RTK is activated by light irradiation. Particularly, HeLa cells were co-transfected with the TrkB-PHR-YFP construct prepared in the example 1-1 and R-GECO construct and cultured in DMEM media containing 10% FBS in the condition of 37° C. and 10% CO2. The cultivated cells were treated with 100 nM of K252a known as a TrkB-specific inhibitor and images taken with a confocal microscope before and after the irradiation with light having 488 nm of wavelength were obtained and analyzed (FIG. 6). As a result, it was observed that there is no difference in the experimental group treated with K252a. On the contrary, the calcium signaling was changed according to light irradiation in the control group.

T1 sequence (Q63604 with tags, fused parts or gaps): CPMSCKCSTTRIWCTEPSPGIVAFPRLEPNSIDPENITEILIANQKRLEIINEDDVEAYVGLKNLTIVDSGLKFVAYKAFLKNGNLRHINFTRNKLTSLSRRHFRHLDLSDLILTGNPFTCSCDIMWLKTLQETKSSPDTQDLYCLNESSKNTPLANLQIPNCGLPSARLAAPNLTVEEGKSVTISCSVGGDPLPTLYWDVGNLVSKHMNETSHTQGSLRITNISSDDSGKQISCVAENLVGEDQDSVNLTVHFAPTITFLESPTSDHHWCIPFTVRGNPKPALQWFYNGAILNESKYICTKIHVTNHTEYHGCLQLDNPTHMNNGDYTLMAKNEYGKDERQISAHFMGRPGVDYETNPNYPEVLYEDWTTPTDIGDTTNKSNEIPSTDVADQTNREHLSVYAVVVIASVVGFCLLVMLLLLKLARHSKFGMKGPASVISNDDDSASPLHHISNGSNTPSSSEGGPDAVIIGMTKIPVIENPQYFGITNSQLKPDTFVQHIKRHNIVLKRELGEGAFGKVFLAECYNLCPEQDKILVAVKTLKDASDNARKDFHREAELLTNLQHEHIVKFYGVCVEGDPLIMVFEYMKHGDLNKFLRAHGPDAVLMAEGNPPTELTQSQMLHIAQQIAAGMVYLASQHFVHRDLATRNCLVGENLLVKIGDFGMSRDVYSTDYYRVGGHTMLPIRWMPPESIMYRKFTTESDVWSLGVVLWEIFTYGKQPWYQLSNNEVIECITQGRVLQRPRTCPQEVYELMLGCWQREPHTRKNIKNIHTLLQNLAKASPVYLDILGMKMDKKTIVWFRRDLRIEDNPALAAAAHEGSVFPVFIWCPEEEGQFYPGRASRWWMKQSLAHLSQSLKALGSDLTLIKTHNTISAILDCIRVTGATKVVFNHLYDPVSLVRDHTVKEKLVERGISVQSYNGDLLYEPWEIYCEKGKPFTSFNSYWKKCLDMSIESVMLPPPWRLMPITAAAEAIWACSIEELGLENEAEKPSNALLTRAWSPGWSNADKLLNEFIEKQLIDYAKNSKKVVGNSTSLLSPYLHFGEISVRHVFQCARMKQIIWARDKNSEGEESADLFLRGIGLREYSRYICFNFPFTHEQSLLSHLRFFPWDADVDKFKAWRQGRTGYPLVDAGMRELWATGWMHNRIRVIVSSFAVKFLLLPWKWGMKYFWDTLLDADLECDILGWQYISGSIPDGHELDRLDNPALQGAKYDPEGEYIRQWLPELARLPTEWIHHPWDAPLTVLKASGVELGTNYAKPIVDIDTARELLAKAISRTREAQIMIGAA

Question: For `COC(=O)[C@@]1(O)C[C@H]2O[C@]1(C)n1c3ccccc3c3c4c(c5c6ccccc6n2c5c31)C(=O)NC4` [K252a], which “change of calcium signaling according to light irradiation” value is on record?
Answer: Its value is “no difference”.
